Assay results as given in patent publication US12187720B2, “Compounds for treatment of cancer” (ONCTERNAL THERAPEUTICS, INC., priority 2010, dated 2025).
Read-outs that look alike come from different tables or passages of the source.

Experiments:
[1] = Metabolic stability in dog liver microsomes; type: in vitro ADME; conditions: dog, dog liver microsomes, pH 7.4; Table 20; read-out: Half life in Dog liver microsome
in vivo [2] = conditions: male, ICR, mouse, plasma, iv, 15 mg/kg
PC-3 cells = test: Apoptosis detection by ELISA (cytoplasmic DNA-histone complexes), PC-3 cells; type: cell-based, human; conditions: PC-3 and A375 cells, 24 h
Excerpt: The levels of DNA-histone complexes were used to represent cell apoptosis.
Apoptosis detection by ELISA. Quantification of the enrichment of mono- and oligonucleosomes in the cytoplasm was used to determine the ability of the compounds to induce apoptosis (cell death detection ELISA PLUS, Roche, Germany) following the manufacturer's instructions.

in vivo [3] = conditions: Sprague-Dawley, rat, plasma
[4] = system: A375 human melanoma xenograft; test: In vivo efficacy, A375 human melanoma xenograft in mice
Method: DTIC at 60 mg/kg was used as a positive control again.
PC-3 and A375 tumor xenograft studies.
(§1) In vivo antitumor activity [tumor growth inhibition (% T/C), tumor growth delay (T-C value), and tumor cell kill (total log cell kill)].

PC-3 xenografts = system: PC-3 xenografts
Excerpt: as §1

[5] = Metabolic stability in mouse liver microsomes; type: in vitro ADME; conditions: mouse, liver microsomes, pH 7.4, Table 20; read-out: Half life in Mouse liver microsome
[6] = Metabolic stability in monkey liver microsomes; type: in vitro ADME; conditions: monkey, monkey liver microsomes, pH 7.4; Table 20; read-out: Half life in Monkey liver microsome
[7] = Metabolic stability in rat liver microsomes; type: in vitro ADME; conditions: rat, liver microsomes, pH 7.4; Table 20; read-out: Half life in Rat liver microsome
Bovine brain tubulin = test: In vitro tubulin polymerization assay (bovine brain tubulin); type: biochemical; conditions: 10 μM
[8] = system: tubulin (colchicine, vinblastine and paclitaxel binding sites); test: Mass spectrometry competitive binding assay on tubulin
Excerpt: MS competition binding assay. […] Each reaction was run in triplicate.

[9] = Rotarod test (in vivo neurotoxicity) in ICR mice; parameters: species or system mouse; conditions: 1h 5 or 15 mg/kg, vinblastine 0.5 mg/kg, i.p. daily
Method: Rotarod test. […] The rotarod test was performed twice a week.

[10] = ICR mice, 4 consecutive days of intraperitoneal dosing
[11] = Pharmacokinetic study in Sprague-Dawley rats
NCI/ADR-RES = test: SRB cytotoxicity assay, P-gp over-expressing NCI/ADR-RES cells; type: cell-based, human; conditions: NCI/ADR-RES versus OVCAR-8
[12] = Metabolic stability in human liver microsomes; conditions: human, liver microsomes, pH 7.4
B16-F1 melanoma cells = test: B16-F1 melanoma colony formation assay in soft agar; type: cell-based, mouse; conditions: 14 days
Method: B16-F1 melanoma cells were plated at a colony-forming density (2000 cells per well on six-well plates) on top of 0.8% base agar. Cells were grown in 0.4% agar together with DMEM medium supplemented with fetal bovine serum and an antibiotic-antimycotic solution at 37° C. in an atmosphere of 95% air and 5% CO2. […] Compounds were added to the media from 1 mM DMSO stock solutions, and a corresponding dilution of DMSO was used as control. Cells were grown for 14 days. Plates were photographed, and the number of colonies was measured by Artek 880 Automated Colony Counter (Artek Systems Corporation, Farmingdale, NY).

WM-164 melanoma cells = test: Microtubule imaging (immunofluorescence) in WM-164 melanoma cells; type: cell-based, human; conditions: 18 h
Excerpt: Primary antibody for tubulin and fluorescence-labeled secondary antibody were subsequently added to the cells. Cell nuclei were stained by DAPI. Whole Cell Stain Green was also applied to all cells. All images were acquired with an Olympus IX71 inverted fluorescence microscope (Olympus Corp., Tokyo, Japan) with overlays from separate images of tubulin (red), nuclei (blue), and whole cells (green).

A375 cells = test: Cell cycle analysis (flow cytometry) in A375 cells; type: cell-based, human; conditions: 24 h
[13] = system: T1, tubulin colchicine binding site; test: [3H]-colchicine competition-binding scintillation proximity assay
T1 construct: […]

[14] = Permeability (drug-like properties); conditions: mean from duplicate studies
PC-3 = test: SRB cytotoxicity assay, PC-3 prostate cancer cells; type: cell-based, human; conditions: Homo sapiens, PC-3; Table 16B; read-out: IC50 in PC3
Excerpt: Cells were stained with SRB solution.

[15] = Pharmacokinetic study in beagle dogs; conditions: dog, in vivo
Porcine brain tubulin = test: In vitro microtubule polymerization assay (porcine brain tubulin); type: biochemical; conditions: 5 μM, at 15 min
[16] = Pharmacokinetic study in ICR mice; conditions: mouse, in vivo
PC-3/TxR tumors = conditions: PC-3/TxR xenograft, b.i.d × 5/w, end point day 26
glioma cells = test: SRB cytotoxicity assay, glioma cells; conditions: read-out: potency in glioma cells
HUVECs = test: Endothelial cell growth inhibition (SRB), HUVEC; type: cell-based, human
BCRP = test: in vitro; conditions: human

Which results are given for COc1cc(C(=O)c2csc(-c3ccccc3)n2)cc(OC)c1OC [1h, (2-Phenyl-thiazol-4-yl)-(3,4,5-trimethoxy-phenyl)-methanone]?
half-life at 0.5 μM [1]: 19 min; AUC (in vivo [2]): 1900 ng·h/mL; half-life (in vivo [2]): 140 min; concentration inducing apoptosis (PC-3 cells): 50 nM; Vd (in vivo [3]; iv, […]): 7.6 L/kg; clearance (in vivo [3]; iv, […]): 6 mL/min/kg; half-life (in vivo [3]; iv, […]): 1440 min; clearance (in vivo [3]; female, iv): 7.7 ± 1 mL/min/kg; T-C (tumor growth delay) ([4]; Melanoma (A375) xenograft, 20 mg/kg i.p.): 10 days; Total log cell kill ([4]; ip, 20 mg/kg, 110.4 h): 0.7; % T/C (PC-3 xenografts; 5 mg/kg i.p.): 29%; % T/C (PC-3 xenografts; 15 mg/kg i.p.): 4%; % T/C (PC-3 xenografts; ip, 15 mg/kg, 504 h): 4%; mice that lost more than 15% body weight (PC-3 xenografts; mouse, in vivo): 1 of 8; half-life at 0.5 μM [5]: < 5 min; half-life at 0.5 μM [6]: < 5 min; half-life at 0.5 μM [7]: 31 min; inhibition of tubulin polymerization (Bovine brain tubulin; 15 min): 90%; inhibition of tubulin polymerization (Bovine brain tubulin; 20 min incubation, versus vehicle): 47%; competition for tubulin binding sites [8]: specifically competed with colchicine binding to tubulin; time on the rotating rod versus vehicle group [9]: no significant difference; dose that did not cause greater than 10% loss of body weight [10]: up to 30 mg/kg; Vss (volume of distribution following intravenous dosing) ([11]; IV, […] (1h, 2r), 5 mg/kg (5Ha, 5Hc)): 4.9 ± 1.9 L/kg; RatPK_PO10mgk_AUC ([11]; rat, PO 10 mg/kg): 37 µg·min/mL; F (percent oral bioavailability), rat ([11]; rats, PO versus IV): 3.3%

For COc1cc(C(=NC#N)c2csc(-c3ccccc3)n2)cc(OC)c1OC [2j, N-((2-phenylthiazol-4-yl)(3,4,5-trimethoxyphenyl)methylene)cyanamide], which Resistance factor (NCI/ADR-RES) is on record?
The Resistance factor was 0.4.

And the half-life at 0.5 μM [12]?
Its half-life at 0.5 μM is < 5 min.

With COc1ccc(-c2nc(C(=O)c3ccc(F)cc3)c[nH]2)cc1 [12cb, (4-fluorophenyl)(2-(4-methoxyphenyl)-1H-imidazol-4-yl)methanone] as the compound, how does the “concentration with effective inhibition of colony formation” value (B16-F1 melanoma cells) read?
The value was 20 nM.

What about the effect on microtubules (WM-164 melanoma cells) of the same compound?
Its effect on microtubules is “microtubule fragmentation”.

What about the “concentration from which most cells are arrested in the G2/M phase” value (A375 cells) of the same compound?
The value was 200 nM.

Which half-life at 0.5 μM [1] does the source give for COc1cc(C(=O)c2c[nH]c(-c3ccc(C)cc3)n2)cc(OC)c1OC [12da, (2-(p-tolyl)-1H-imidazol-4-yl)(3,4,5-trimethoxyphenyl)methanone] here?
Its half-life at 0.5 μM is 17 min.

And the half-life at 0.5 μM [5]?
Its half-life at 0.5 μM is 8 min.

And the effect on microtubules (WM-164 melanoma cells)?
Its effect on microtubules is “microtubule fragmentation”.

And the half-life at 0.5 μM [7]?
The half-life at 0.5 μM was 28 min.

And the “colchicine site binding in words” value [13]?
The value was “highest binding affinity”.

And the half-life at 0.5 μM [12]?
Its half-life at 0.5 μM is 23 min.

Which “Papp(A→B) in CaCO-2 assay” value [14] does the source give for CC(C)NCC(O)COc1cccc2ccccc12 (stereo not shown) [Propranolol] here?
The value was “(19) 10^−6 cm/s”.

Which “Papp(A→B) in CaCO-2 assay” value [14] does the source give for COc1cc(C(=O)c2csc(Nc3ccc4[nH]ccc4c3)n2)cc(OC)c1OC [compound 55, (2-(1H-INDOL-5-YLAMINO)THIAZOL-4-YL)(3,4,5-TRIMETHOXYPHENYL)METHANONE] here?
Its value is 99 10^−6 cm/s.

And the IC50 (PC-3)?
The IC50 was 28 nM.

What about the bioavailability (in vivo [3]; ICR, beagle, po) of the same compound?
The bioavailability was 24 to 36%.

And the “clearance in words, dogs” value [15]?
The value was “moderate clearance”.

And the “inhibition of tubulin polymerization” value (Porcine brain tubulin)?
The value was 40%.

And the “clearance in words, mice” value [16]?
The value was “moderate clearance”.

What about the “Tumor size End” value (PC-3/TxR tumors; PO 10 mpk) of the same compound?
Its value is 1152 ± 433 mm^3.

And the “Tumor size End” value (PC-3/TxR tumors; PO 30 mpk)?
Its value is 101 ± 19 mm^3.

What about the “competition for tubulin binding sites” value [8] of the same compound?
Its value is “competed effectively with colchicine”.

And the “clearance in words, rats” value ([11]; rat, in vivo)?
The value was “low clearance”.

And the IC50 (glioma cells)?
Its IC50 is 22 nM.

Which results are given for COc1cccc2c1C(=O)c1c(O)c3c(c(O)c1C2=O)C[C@@](O)(C(=O)CO)C[C@@H]3O[C@H]1C[C@H](N)[C@H](O)[C@H](C)O1 [doxorubicin]?
times more active against endothelial cells than against cancer cells (HUVECs): not specific to endothelial cells; IC50 (HUVECs; N = 3): 274 nM

With CC[C@]1(O)C[C@@H]2CN(CCc3c([nH]c4ccccc34)[C@@](C(=O)OC)(c3cc4c(cc3OC)N(C)[C@H]3[C@@](O)(C(=O)OC)[C@H](OC(C)=O)[C@]5(CC)C=CCN6CC[C@]43[C@@H]65)C2)C1 [vinblastine, reference compound] as the compound, how does the “% T/C” value (PC-3 xenografts; 0.5 mg/kg q2d, day 22) read?
The value was 29%.

And the “% T/C” value (PC-3 xenografts; Prostate (PC-3) xenograft, 0.5 mg/kg, q2d)?
Its value is 29%.

What about the IC50 (BCRP) of the same compound?
Its IC50 is 25 ± 1 nM.

What about the “competition for tubulin binding sites” value [8] of the same compound?
Its value is “did not inhibit the colchicine-tubulin binding”.

And the “time on the rotating rod versus vehicle group” value [9]?
Its value is “gradually reduced the time”.
